The source of these data is patent EP0923530B1, “INHIBITION OF MATRIX METALLOPROTEASES BY SUBSTITUTED BIARYL OXOBUTYRIC ACIDS” (Bayer Corporation, priority 1996, dated 1997).

SMILES strings stand for the structures.

The target in one experiment is T1, MMP-9 (Homo sapiens, UniProt P14780).
T1 construct: made in house
Put plainly: P218 quenched fluorescence assay (MMP Microfluorometric Profiling Assay), MMP-9. Format: biochemical. The note with it: 6 µM P218 substrate, 25 min at 37°C, pH 6.5; read-out: MMP-9 Fluorogenic IC50. The source says: (§1) The P218 quenched fluorescence assay (Microfluorometric Profiling Assay) is a modification of that originally described by Knight, et al.. FEBS Lett. 296, 263 (1992) for a related substance and a variety of matrix metalloproteinases (MMPs) in cuvettes. The assay was run with each invention compound and the three MMPs, MMP-3, MMP-9 and MMP-2, analyzed in parallel, adapted as follows for a 96-well microtiter plate and a Hamilton AT® workstation. P218 Fluorogenic Substrate: P218 is a synthetic substrate containing a 4-acetyl-7-methoxycoumarin ( MCA) group in the N-terminal position and a 3-[2, 4-dinitrophenyl]-L-2,3-diaminopropionyl (DPA) group internally. This is a modification of a peptide reported by Knight (1992) that was used as a substrate for matrix metalloproteinases. Once the P218 peptide is cleaved (putative clip site at the Ala-Leu bond), the fluorescence of the MCA group can be detected on a fluorometer with excitation at 328 nm and emission at 393 nm. P218 is currently being produced BACHEM exclusively for Bayer. P218 has the structure: [formula]
Recombinant Human Pro-MMP-9: Human pro-gelatinase B (pro-MMP-9) derived from U937 cDNA as described by Wilhelm, et al. J. Biol. Chem. 264, 17213 (1989) was expressed as the full-length form using a baculovirus protein expression system. The pro-enzyme was purified using methods previously described by Hibbs, et al. J. Biol. Chem. 260, 2493 (1984).
Activation of Pro-MMP-9: […] 20 µg/mL in 50 mM Tris at pH 7.4, 10mM CaCl2, 150 mM NaCl, and 0.005% Brij-35 (MMP-9 activation buffer) was activated by incubation with 0.5 mM p-aminophenylmercuric acetate (APMA) for 3.5 h at 37°C. The enzyme was dialyzed against the same buffer to revmove the APMA.
(§2) Hamiltion Microlab AT Plus: The MMP-Profiling Assay is performed robotically on a Hamilton MicroLab AT Plus®. […]
(§3) Millipore Cytofluor II. Following incubation, the plate was read on a Cytofluor II fluorometric plate reader with excitation at 340 nm and emission at 395 nm with the gain set at 80. […]

A further experiment addresses T2, MMP-3 (Homo sapiens, UniProt P08254).
T2 construct: made in house; host or cells: CHO cells
Put plainly: P218 quenched fluorescence assay (MMP Microfluorometric Profiling Assay), MMP-3. Format: biochemical. The note with it: 6 µM P218 substrate, 25 min at 37°C, pH 6.5; read-out: MMP-3 Fluorogenic IC50.
From the text: as §1
Recombinant Human CHO Pro-MMP-3: Human CHO pro-stromelysin-257 (pro-MMP-3) was expressed and purified as described by Housley, et al.. J. Biol. Chem. 268, 4481 (1993).
Activation of Pro-MMP-3: Pro-MMP-3 at 1.72 µM (100 µg/mL) in 5 mM Tris at pH 7.5, 5 mM CaCl2, 25 mM NaCl, and 0.005% Brij-35 (MMP-3 activation buffer) was activated by incubation with TPCK (N-tosyl-(L)-phenylalanine chloromethyl ketone) trypsin (1:100 w/w to pro-MMP-3) at 25 °C for 30 min. The reaction was stopped by addition of soybean trypsin inhibitor (SBTI; 5:1 w/w to trypsin concentration). This activation protocol results in the formation of 45 kDa active MMP-3, which still contains the C-terminal portion of the enzyme.
as §2, §3

A further experiment deals with MMP-2 (Homo sapiens, UniProt P08253). Put plainly: biochemical.
Chain of MMP-2 (P08253 110-660): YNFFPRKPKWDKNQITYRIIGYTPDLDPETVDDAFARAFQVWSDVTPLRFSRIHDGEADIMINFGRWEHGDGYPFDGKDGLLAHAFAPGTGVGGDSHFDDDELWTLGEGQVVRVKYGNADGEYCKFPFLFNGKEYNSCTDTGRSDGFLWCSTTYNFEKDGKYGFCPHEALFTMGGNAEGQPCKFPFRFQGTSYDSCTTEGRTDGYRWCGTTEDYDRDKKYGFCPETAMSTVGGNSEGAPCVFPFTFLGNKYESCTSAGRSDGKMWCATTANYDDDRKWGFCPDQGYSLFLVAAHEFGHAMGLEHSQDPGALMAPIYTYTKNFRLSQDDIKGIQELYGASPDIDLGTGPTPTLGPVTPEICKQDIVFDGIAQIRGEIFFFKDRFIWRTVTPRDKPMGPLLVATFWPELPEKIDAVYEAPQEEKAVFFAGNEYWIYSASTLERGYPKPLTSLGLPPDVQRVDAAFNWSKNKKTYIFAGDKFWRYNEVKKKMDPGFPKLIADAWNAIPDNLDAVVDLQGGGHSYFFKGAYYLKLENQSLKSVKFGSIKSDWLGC

T2 sequence (P08254 100-477): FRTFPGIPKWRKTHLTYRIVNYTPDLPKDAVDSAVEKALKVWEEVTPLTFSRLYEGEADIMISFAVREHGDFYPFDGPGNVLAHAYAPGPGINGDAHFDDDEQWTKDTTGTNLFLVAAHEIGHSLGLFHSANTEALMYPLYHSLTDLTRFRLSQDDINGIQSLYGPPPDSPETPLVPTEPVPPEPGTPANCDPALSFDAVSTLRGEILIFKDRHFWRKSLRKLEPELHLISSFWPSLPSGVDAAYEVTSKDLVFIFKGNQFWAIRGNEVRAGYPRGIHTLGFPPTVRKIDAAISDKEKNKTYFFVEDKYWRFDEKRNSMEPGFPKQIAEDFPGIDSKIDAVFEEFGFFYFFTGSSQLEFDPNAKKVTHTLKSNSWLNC
T1 sequence (P14780 107-707 limits assumed): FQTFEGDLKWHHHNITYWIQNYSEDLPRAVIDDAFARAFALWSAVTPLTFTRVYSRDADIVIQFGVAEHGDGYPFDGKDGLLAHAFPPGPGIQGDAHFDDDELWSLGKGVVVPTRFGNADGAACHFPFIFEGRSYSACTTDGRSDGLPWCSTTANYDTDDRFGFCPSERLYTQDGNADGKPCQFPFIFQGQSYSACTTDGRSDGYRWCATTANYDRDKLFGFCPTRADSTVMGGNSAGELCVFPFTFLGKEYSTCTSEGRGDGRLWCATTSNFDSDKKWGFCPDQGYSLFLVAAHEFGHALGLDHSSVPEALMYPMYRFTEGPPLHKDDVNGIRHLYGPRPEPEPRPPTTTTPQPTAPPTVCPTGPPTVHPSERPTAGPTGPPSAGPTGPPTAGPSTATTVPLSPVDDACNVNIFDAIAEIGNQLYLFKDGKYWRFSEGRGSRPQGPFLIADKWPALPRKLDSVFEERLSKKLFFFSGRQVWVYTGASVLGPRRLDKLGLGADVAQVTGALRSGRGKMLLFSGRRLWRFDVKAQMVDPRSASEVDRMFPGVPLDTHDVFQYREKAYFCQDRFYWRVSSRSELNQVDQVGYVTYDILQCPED

Take `CC1=NCC(=O)N(CCC(CC(=O)c2ccc(-c3ccc(Cl)cc3)cc2)C(=O)O)c2ccccc21` (stereo not drawn) [Example 22, α-[2-(4'-chloro[1,1'-biphenyl]-4-yl)-2-oxoethyl]-2,3-dihydro-5-methyl-2-oxo-1H-1,4-benzodiazepine-1-butanoic acid]: the IC50 was determined as 120 nM on MMP-9, 140 nM on MMP-3 and 24 nM at MMP-2.

On to `O=C(CC(CCn1nnc2ccccc2c1=O)C(=O)O)c1ccc(-c2ccc(Cl)cc2)cc1` (stereo not drawn) [Example 19, α-[2-(4'-chloro[1,1'-biphenyl]-4-yl)-2-oxoethyl]-4-oxo-1,2,3,-Benzotriazine-3(4H)-butanoic acid], for which the figures for the IC50 on MMP-9, on MMP-3 and against MMP-2 were 4.7 nM, 47 nM and 2.4 nM, respectively.

For the compound `O=C(c1ccc(-c2ccc(Cl)cc2)cc1)C1CCC(Cn2nnc3ccccc3c2=O)C1C(=O)O` (stereo not drawn) [Example 1, 2-[(4'-chloro[1,1'-biphenyl]-4-yl)carbonyl]-5-[(4-oxo-1,2,3-benzotriazin-3(4H)-yl)methyl]-cyclopentanecarboxylic acid], the IC50 worked out at 0.34 nM on MMP-9, 1.7 nM on MMP-3 and 0.39 nM on MMP-2.

By IC50 is commonly meant the concentration that inhibits the measured activity by half.
